According to US20050080102A1, “Compound and uses thereof” (priority 2002, published 2005):
Blank lines part the entries; values can stand above or below the compound they belong to.

Experiments:
Format in all cases: biochemical
[1] = test system: Apaf-1 (apoptosome); assay: Apoptosome formation in HeLa cell S-100, gel-filtration chromatography and Western blot against Apaf-1
Method: In order to find out how this small molecule ([…]) promotes activation of caspase-3, apoptosome formation was analyzed using gel-filtration chromatography followed by Western blot analysis against Apaf-1 (Zou H et al., Cell 90:405-413, 1997). Other methods known to those of ordinary skill in the art may also be used for such an analysis.

[2] = test system: caspase-3 (procaspase-3 cleavage); assay: Caspase-3 activation reconstituted with HeLa S-100 fractions (Q-ft, Q30, Q100) and purified/recombinant proteins
Text: To study the mechanism, HeLa cell S-100 extracts were fractionated using an anion exchange column. […] The first fraction, Q-ft, flew through the column and contained cytochrome c (Liu et al., Cell 86:147 (1996)). The second fraction, Q30, was eluted with 0.3 M NaCl and contained Apaf-1 (Zou et al., Cell 90:405 (1997)) and procaspase-9 (Li et al., Cell 91:479 (1997)). The third fraction, Q100, was eluted with 1 M NaCl. These three fractions were then used in different combinations to search for proteins that might mediate the PETCM effect.
The inhibitory activity was assayed by adding column fractions to the mixture of Q30/cytochrome c/PHAP/dATP.
Ten ml of HeLa S-100 (˜60 mg total protein) was loaded on a 1-ml HiTrap Q column (Pharmacia) pre-equilibrated with Buffer A (i.e., 20 mM Hepes-KOH, pH7.5, 10 mM KCl, 1.5 mM Mg Cl2, 1 mM sodium EDTA and 1 mM sodium EGTA, 1 mM dithiothreitol, and 0.1 mM PMSF). The flowthrough (Q-ft) was collected. After being washed with 10-ml of Buffer A, the column was eluted with 10-ml of Buffer A containing 300 mM NaCl, and the eluted protein peak ([…]) was collected (Q30). Subsequently, the column was eluted with Buffer A containing 1 M NaCl, and the protein peak (−3 ml) was collected and dialyzed for overnight (Q100).

[3] = test system: caspase-3; assay: Caspase-3 activation in HeLa cell lysate/S-100 (Ac-DEVD-pNA cleavage, HTS)
Method: Other means of measuring caspoase-3 activation are also encompassed herein and are readily known to those of ordinary skill in the art.
With respect to Example I, the high throughput screening (HTS) was essentially a cell-lysate assay in which the endpoint, activation of caspase-3, was monitored by the cleavage of a calorimetric substrate. HeLa cell lysate was prepared by Cellex Bioscience (Minneapolis, Minn.). This lysate was thawed and centrifuged before use (15K rpm in a JA20 Beckman rotor, Fullerton, Calif.). […] The plates were allowed to incubate for three to four hours. When 90% of the Ac-DEVD-pNA (Bachem L1945) was converted by the activated capsase-3 in the control plate, the screening plates were read again at 390 nm. The change in absorbency was scaled to the fully-activated control (cytochrome c) and the negative control (no compound).

[4] = test system: extracts from human tumor cells (caspase activation); assay: Response of extracts from a battery of human tumor cells to PETCM; details: colon cancer, prostate cancer, promyelocytic leukemia, T cell leukemia, bone marrow leukemia, malignant melanoma, lymphoma, glioblastoma cells
Method: Extracts from a battery of human tumor cells were also screened for their response to PETCM. It was determined that many human cancer lines, including colon cancer, prostate cancer, promyelocytic leukemia, T cell leukemia, bone marrow leukemia, malignant melanoma, lymphoma, and glioblastoma cells were responsive. […] PETCM and the PETCM-stimulated caspase activation pathway are therefore of fundamental and clinical significance with respect to malignant mammalian cells. Thus, the present invention encompasses a method of stimulating caspase activity in malignant cells comprising exposing said cells to PETCM or administering PETCM to said cells.

[5] = test system: apoptosome (Apaf-1/caspase-9); assay: Apoptosome formation and caspase-9 activation in reconstituted system (Q30, cytochrome c, dATP)
Method: FIG. 5 illustrates regulation of apoptosome by ProT and PHAP. FIG. 5(A) illustrates that PHAP accelerates caspase-3 activation after PETCM antagonizes the inhibitory activity of ProT. FIG. 5(B) illustrates that ProT inhibits apoptosome formation, and PETCM can antagonize the inhibitory activity. FIG. 5(C) illustrates that PHAP enhances caspase-9 activation. Apoptosome formation was measured as described in FIG. 1.
Subsequently, regulation of apoptosome by these players was tested. […] PETCM promotes caspase-3 activation by removing the inhibition of ProT on apoptosome formation, allowing PHAPs to stimulate apoptosome activity.

[6] = test system: caspase-3; assay: Caspase-3 activation in extracts from RNAi treated HeLa cells; details: extracts from control RNAi treated-cells (FIG. 6D)
Text: (SEQ ID NO:7) and […] (SEQ ID NO:9) and […]

- caspase-3 activation ([2]; Q-ft + Q30 + Q100, 10 μM dATP (lane 3)): little caspase-3 activation was observed
- caspase-3 activation ([2]; Q-ft + Q30 + Q100, 1 mM dATP (lane 2)): robust caspase-3 activation
Compound: Nc1ncnc2c1ncn2[C@H]1C[C@H](O)[C@@H](COP(=O)(O)OP(=O)(O)OP(=O)(O)O)O1 [dATP, 2′-deoxyadenosine-5′-triphosphate, reference compound]
- apoptosome formation (Apaf-1 shift) ([1]; S-100 incubated with 1 mM dATP): most of the Apaf-1 was shifted to the size of ˜1 million Dalton

Compound: OC(Cc1ccncc1)C(Cl)(Cl)Cl (stereo not drawn) [PETCM, alpha-(trichloromethyl)-4-Pyridineethanol]
- efficiency in activating caspase-3 compared with dATP ([3]; 0.2 mM PETCM vs 1.0 mM dATP): more efficient in activating caspase-3 than 1.0 mM dATP
- DEVD activity of HeLa S-100 ([3]; FIG. 1(B), increasing amounts of PETCM): stimulates DEVD activity of HeLa S-100 in a dose-dependent manner
- efficiency of apoptosome formation compared with dATP ([1]; 0.2 mM PETCM vs 1 mM dATP): better than 1 mM dATP
- apoptosome formation (Apaf-1 shift) ([1]; S-100 incubated with 0.2 mM PETCM): Apaf-1 was also shifted to the position of apoptosome
- response of human cancer line extracts to PETCM [4]: responsive
- reversal of Q100 suppression of PHAP stimulatory activity ([2]; PHAP with Q100 added back (FIG. 4A, lanes 5-6)): the suppression was reversed by the addition of PETCM
- caspase-3 activation ([2]; Q30, cytochrome c, 10 μM dATP, PHAPI, ProT, with PETCM (FIG. 5A, lane 4)): the inhibitory effect of ProT was reversed
- caspase-3 activation ([2]; Q-ft + Q30 + Q100, 0.2 mM PETCM with 10 μM dATP (lane 5)): caspase-3 activation was observed at 10 μM dATP
- caspase-3 activation ([2]; Q-ft + Q30 + Q100, PETCM, dATP completely omitted (lane 4)): No caspase-3 activation was seen
- apoptosome formation ([5]; FIG. 5B, ProT plus PETCM): relieved the blockage
- caspase-3 activation in extracts, PETCM requirement [6]: responsive to PETCM

- caspase-3 activation ([2]; Q30 fraction plus cytochrome c and 10 μM dATP (FIG. 5A, lane 2)): stimulated caspase-3 activation
Compound: PHAPI: recombinant His-tagged PHAPI, putative tumor suppressor protein that stimulates caspase activation
- apoptosome formation ([5]; presence of PHAPI): did not affect the efficiency of apoptosome formation
- caspase-9 activation ([5]; presence of PHAPI (FIG. 5C)): more activated caspase-9 was observed
